Laboratory results published in ChEMBL document CHEMBL2440076, “New triarylpyrazoles as broad-spectrum anticancer agents: design, synthesis, and biological evaluation” (Eur J Med Chem, 2013).

How the values were obtained:
Assay type in all cases: functional
OVCAR-5 [1] = experiment: Growth inhibition of human OVCAR5 cells assessed as cell growth at 3X10'-7 M after 48 hrs by sulforhodamine B assay; details: OVCAR-5, 48 h, read-out: Activity
OVCAR-4 [2] = experiment: Growth inhibition of human OVCAR4 cells assessed as cell growth at 3X10'-7 M after 48 hrs by sulforhodamine B assay; details: OVCAR-4, 48 h, read-out: Activity
SK-MEL-2 = experiment: Growth inhibition of human SK-MEL-2 cells assessed as cell growth at 3X10'-7 M after 48 hrs by sulforhodamine B assay; details: SK-MEL-2, 48 h, read-out: Activity
HCT-15 = experiment: Growth inhibition of human HCT15 cells assessed as cell growth at 3X10'-7 M after 48 hrs by sulforhodamine B assay; details: HCT-15, 48 h, read-out: Activity
NCI-H460 = experiment: Growth inhibition of human NCI-H460 cells assessed as cell growth at 3X10'-7 M after 48 hrs by sulforhodamine B assay; details: NCI-H460, 48 h, read-out: Activity
NCI-H23 [3] = experiment: Growth inhibition of human NCI-H23 cells assessed as cell growth at 3X10'-7 M after 48 hrs by sulforhodamine B assay; details: NCI-H23, 48 h, read-out: Activity
MOLT-4 = experiment: Growth inhibition of human MOLT4 cells assessed as cell growth at 3X10'-7 M after 48 hrs by sulforhodamine B assay; details: MOLT-4, 48 h, read-out: Activity
TK-10 = experiment: Growth inhibition of human TK10 cells assessed as cell growth at 3X10'-8 M after 48 hrs by sulforhodamine B assay; details: TK-10, 48 h, read-out: Activity
M14 [4] = experiment: Growth inhibition of human M14 cells assessed as cell growth at 3X10'-8 M after 48 hrs by sulforhodamine B assay; details: M14, 48 h, read-out: Activity
SR = experiment: Growth inhibition of human SR cells assessed as cell growth at 3X10'-8 M after 48 hrs by sulforhodamine B assay; details: read-out: Activity
MDA-MB-468 = experiment: Growth inhibition of human MDA-MB-468 cells assessed as cell growth at 3X10'-9 M after 48 hrs by sulforhodamine B assay; details: MDA-MB-468, 48 h, read-out: Activity
[5] = Growth inhibition of human Hs 578T cells assessed as cell growth at 3X10'-9 M after 48 hrs by sulforhodamine B assay; details: read-out: Activity
SK-OV-3 [6] = experiment: Growth inhibition of human SKOV3 cells assessed as cell growth at 3X10'-5 M after 48 hrs by sulforhodamine B assay; details: SK-OV-3, 48 h, read-out: Activity
CAKI-1 = experiment: Growth inhibition of human CAKI-1 cells assessed as cell growth at 3X10'-9 M after 48 hrs by sulforhodamine B assay; details: CAKI-1, 48 h, read-out: Activity
ACHN = experiment: Growth inhibition of human ACHN cells assessed as cell growth at 3X10'-9 M after 48 hrs by sulforhodamine B assay; details: read-out: Activity
[7] = Growth inhibition of human NCI-ADR-RES cells assessed as cell growth at 3X10'-9 M after 48 hrs by sulforhodamine B assay; details: read-out: Activity
OVCAR-4 [8] = experiment: Growth inhibition of human OVCAR4 cells assessed as cell growth at 3X10'-5 M after 48 hrs by sulforhodamine B assay; details: OVCAR-4, 48 h, read-out: Activity
SK-MEL-28 [9] = experiment: Growth inhibition of human SK-MEL-28 cells assessed as cell growth at 3X10'-5 M after 48 hrs by sulforhodamine B assay; details: SK-MEL-28, 48 h, read-out: Activity
MDA-MB-435 = experiment: Growth inhibition of human MDA-MB-435 cells assessed as cell growth at 3X10'-5 M after 48 hrs by sulforhodamine B assay; details: MDA-MB-435, 48 h, read-out: Activity
U-251 [10] = experiment: Growth inhibition of human U251 cells assessed as cell growth at 3X10'-5 M after 48 hrs by sulforhodamine B assay; details: U-251, 48 h, read-out: Activity
SNB-75 = experiment: Growth inhibition of human SNB75 cells assessed as cell growth at 3X10'-5 M after 48 hrs by sulforhodamine B assay; details: SNB-75, 48 h, read-out: Activity
HT-29 = experiment: Growth inhibition of human HT-29 cells assessed as cell growth at 3X10'-5 M after 48 hrs by sulforhodamine B assay; details: HT-29, 48 h, read-out: Activity
NCI-H23 [11] = experiment: Growth inhibition of human NCI-H23 cells assessed as cell growth at 3X10'-5 M after 48 hrs by sulforhodamine B assay; details: NCI-H23, 48 h, read-out: Activity
HOP-92 = experiment: Growth inhibition of human HOP92 cells assessed as cell growth at 3X10'-5 M after 48 hrs by sulforhodamine B assay; details: HOP-92, 48 h, read-out: Activity
BT-549 [12] = experiment: Growth inhibition of human BT549 cells assessed as cell growth at 3X10'-6 M after 48 hrs by sulforhodamine B assay; details: BT-549, 48 h, read-out: Activity
[13] = Growth inhibition of human Hs 578T cells assessed as cell growth at 3X10'-6 M after 48 hrs by sulforhodamine B assay; details: read-out: Activity
M14 [14] = experiment: Growth inhibition of human M14 cells assessed as cell growth at 3X10'-9 M after 48 hrs by sulforhodamine B assay; details: M14, 48 h, read-out: Activity
U-251 [15] = experiment: Growth inhibition of human U251 cells assessed as cell growth at 3X10'-9 M after 48 hrs by sulforhodamine B assay; details: U-251, 48 h, read-out: Activity
[16] = Growth inhibition of human HCC2998 cells assessed as cell growth at 3X10'-9 M after 48 hrs by sulforhodamine B assay; details: HCC 2998, 48 h, read-out: Activity
NCI-H226 = experiment: Growth inhibition of human NCI-H226 cells assessed as cell growth at 3X10'-9 M after 48 hrs by sulforhodamine B assay; details: NCI-H226, 48 h, read-out: Activity
SK-OV-3 [17] = experiment: Growth inhibition of human SKOV3 cells assessed as cell growth at 3X10'-6 M after 48 hrs by sulforhodamine B assay; details: SK-OV-3, 48 h, read-out: Activity
OVCAR-5 [18] = experiment: Growth inhibition of human OVCAR5 cells assessed as cell growth at 3X10'-6 M after 48 hrs by sulforhodamine B assay; details: OVCAR-5, 48 h, read-out: Activity
UACC-257 = experiment: Growth inhibition of human UACC257 cells assessed as cell growth at 3X10'-6 M after 48 hrs by sulforhodamine B assay; details: UACC-257, 48 h, read-out: Activity
SK-MEL-28 [19] = experiment: Growth inhibition of human SK-MEL-28 cells assessed as cell growth at 3X10'-6 M after 48 hrs by sulforhodamine B assay; details: SK-MEL-28, 48 h, read-out: Activity
KM12 = experiment: Growth inhibition of human KM12 cells assessed as cell growth at 3X10'-6 M after 48 hrs by sulforhodamine B assay; details: KM12, 48 h, read-out: Activity
BT-549 [20] = experiment: Growth inhibition of human BT549 cells assessed as cell growth at 3X10'-7 M after 48 hrs by sulforhodamine B assay; details: BT-549, 48 h, read-out: Activity
MDA-MB-231 = experiment: Growth inhibition of human MDA-MB-231 cells assessed as cell growth at 3X10'-7 M after 48 hrs by sulforhodamine B assay; details: MDA-MB-231, 48 h, read-out: Activity

SMILES	growth at 0.3 µM (OVCAR-5 [1]) [%]	growth at 0.3 µM (OVCAR-4 [2]) [%]	growth at 0.3 µM (SK-MEL-2) [%]	growth at 0.3 µM (HCT-15) [%]	growth at 0.3 µM (NCI-H460) [%]	growth at 0.3 µM (NCI-H23 [3]) [%]	growth at 0.3 µM (MOLT-4) [%]	growth at 0.03 µM (TK-10) [%]	growth at 0.03 µM (M14 [4]) [%]	growth at 0.03 µM (SR) [%]	growth at 0.003 µM (MDA-MB-468) [%]	growth at 0.003 µM [5] [%]	growth at 0.003 µM (CAKI-1) [%]	growth at 0.003 µM (ACHN) [%]	growth at 0.003 µM [7] [%]	growth at 30 µM (OVCAR-4 [8]) [%]	growth at 30 µM (SK-MEL-28 [9]) [%]	growth at 30 µM (MDA-MB-435) [%]	growth at 30 µM (U-251 [10]) [%]	growth at 30 µM (SNB-75) [%]	also measured
COc1cc(-c2nn(-c3cccc(NC(=O)Nc4ccc(Cl)c(C(F)(F)F)c4)c3)cc2-c2ccncc2)ccc1Cl	89	96	111	95	101	97	90	102	109	107	101	90	92	102	104	-2	-70	-50	-58	-24	growth at 30 µM (SK-OV-3 [6]): -14%; growth at 30 µM (HT-29): -63%; growth at 30 µM (NCI-H23 [11]): -16%; growth at 30 µM (HOP-92): -46%; growth at 3 µM (BT-549 [12]): 40%; growth at 3 µM [13]: 25%; growth at 0.003 µM (M14 [14]): 106%; growth at 0.003 µM (U-251 [15]): 97%; growth at 0.003 µM [16]: 102%; growth at 0.003 µM (NCI-H226): 99%; growth at 3 µM (SK-OV-3 [17]): 21%; growth at 3 µM (OVCAR-5 [18]): 49%; growth at 3 µM (UACC-257): 20%; growth at 3 µM (SK-MEL-28 [19]): 16%; growth at 3 µM (KM12): 7%; growth at 0.3 µM (BT-549 [20]): 109%; growth at 0.3 µM (MDA-MB-231): 85%
COc1cc(-c2nn(-c3cccc(NC(=O)c4ccc(Cl)c(C(F)(F)F)c4)c3)cc2-c2ccncc2)ccc1Cl	90	89	96	94	98	92	98	93	96	98	89	93	93	99	97	32	29	-52	15	-2	growth at 30 µM (SK-OV-3 [6]): 24%; growth at 30 µM (HT-29): 3%; growth at 30 µM (NCI-H23 [11]): 17%; growth at 30 µM (HOP-92): -8%; growth at 3 µM (BT-549 [12]): 62%; growth at 3 µM [13]: 43%; growth at 0.003 µM (M14 [14]): 99%; growth at 0.003 µM (U-251 [15]): 96%; growth at 0.003 µM [16]: 95%; growth at 0.003 µM (NCI-H226): 92%; growth at 3 µM (SK-OV-3 [17]): 71%; growth at 3 µM (OVCAR-5 [18]): 88%; growth at 3 µM (UACC-257): 60%; growth at 3 µM (SK-MEL-28 [19]): 49%; growth at 3 µM (KM12): 39%; growth at 0.3 µM (BT-549 [20]): 95%; growth at 0.3 µM (MDA-MB-231): 81%
O=C(Nc1cccc(-n2cc(-c3ccncc3)c(-c3ccc(Cl)c(O)c3)n2)c1)Nc1ccc(Cl)c(Cl)c1	104	105	111	99	95	102	101	103	94	98	90	89	93	103	100	17	-27	-38	-28	-15	growth at 30 µM (HT-29): 3%; growth at 30 µM (NCI-H23 [11]): -1%; growth at 30 µM (HOP-92): -31%; growth at 3 µM (BT-549 [12]): 28%; growth at 3 µM [13]: -1%; growth at 0.003 µM (M14 [14]): 93%; growth at 0.003 µM (U-251 [15]): 98%; growth at 0.003 µM [16]: 95%; growth at 0.003 µM (NCI-H226): 98%; growth at 3 µM (SK-OV-3 [17]): 13%; growth at 3 µM (OVCAR-5 [18]): 42%; growth at 3 µM (UACC-257): -1%; growth at 3 µM (SK-MEL-28 [19]): 25%; growth at 3 µM (KM12): 9%; growth at 0.3 µM (BT-549 [20]): 106%; growth at 0.3 µM (MDA-MB-231): 94%
